Laboratory results reported in ChEMBL document CHEMBL3414527, “Engineering potent and selective analogues of GpTx-1, a tarantula venom peptide antagonist of the Na(V)1.7 sodium channel” (J Med Chem, 2015).
Bridge positions count the residues as written; N and C are the ends. Peptide text beside a SMILES is read from it.

Columns and labels:
[1] = target: Sodium channel protein type 5 subunit alpha (Homo sapiens, UniProt Q14524); experiment: Inhibition of human NaV1.5 at -140 mV holding potential by whole-cell patch clamp assay
[2] = target: Sodium channel protein type 9 subunit alpha (Homo sapiens, UniProt Q15858); experiment: Inhibition of human NaV1.7 at -140 mV holding potential by whole-cell patch clamp assay
Chain of Sodium channel protein type 9 subunit alpha (Q15858 whole entry): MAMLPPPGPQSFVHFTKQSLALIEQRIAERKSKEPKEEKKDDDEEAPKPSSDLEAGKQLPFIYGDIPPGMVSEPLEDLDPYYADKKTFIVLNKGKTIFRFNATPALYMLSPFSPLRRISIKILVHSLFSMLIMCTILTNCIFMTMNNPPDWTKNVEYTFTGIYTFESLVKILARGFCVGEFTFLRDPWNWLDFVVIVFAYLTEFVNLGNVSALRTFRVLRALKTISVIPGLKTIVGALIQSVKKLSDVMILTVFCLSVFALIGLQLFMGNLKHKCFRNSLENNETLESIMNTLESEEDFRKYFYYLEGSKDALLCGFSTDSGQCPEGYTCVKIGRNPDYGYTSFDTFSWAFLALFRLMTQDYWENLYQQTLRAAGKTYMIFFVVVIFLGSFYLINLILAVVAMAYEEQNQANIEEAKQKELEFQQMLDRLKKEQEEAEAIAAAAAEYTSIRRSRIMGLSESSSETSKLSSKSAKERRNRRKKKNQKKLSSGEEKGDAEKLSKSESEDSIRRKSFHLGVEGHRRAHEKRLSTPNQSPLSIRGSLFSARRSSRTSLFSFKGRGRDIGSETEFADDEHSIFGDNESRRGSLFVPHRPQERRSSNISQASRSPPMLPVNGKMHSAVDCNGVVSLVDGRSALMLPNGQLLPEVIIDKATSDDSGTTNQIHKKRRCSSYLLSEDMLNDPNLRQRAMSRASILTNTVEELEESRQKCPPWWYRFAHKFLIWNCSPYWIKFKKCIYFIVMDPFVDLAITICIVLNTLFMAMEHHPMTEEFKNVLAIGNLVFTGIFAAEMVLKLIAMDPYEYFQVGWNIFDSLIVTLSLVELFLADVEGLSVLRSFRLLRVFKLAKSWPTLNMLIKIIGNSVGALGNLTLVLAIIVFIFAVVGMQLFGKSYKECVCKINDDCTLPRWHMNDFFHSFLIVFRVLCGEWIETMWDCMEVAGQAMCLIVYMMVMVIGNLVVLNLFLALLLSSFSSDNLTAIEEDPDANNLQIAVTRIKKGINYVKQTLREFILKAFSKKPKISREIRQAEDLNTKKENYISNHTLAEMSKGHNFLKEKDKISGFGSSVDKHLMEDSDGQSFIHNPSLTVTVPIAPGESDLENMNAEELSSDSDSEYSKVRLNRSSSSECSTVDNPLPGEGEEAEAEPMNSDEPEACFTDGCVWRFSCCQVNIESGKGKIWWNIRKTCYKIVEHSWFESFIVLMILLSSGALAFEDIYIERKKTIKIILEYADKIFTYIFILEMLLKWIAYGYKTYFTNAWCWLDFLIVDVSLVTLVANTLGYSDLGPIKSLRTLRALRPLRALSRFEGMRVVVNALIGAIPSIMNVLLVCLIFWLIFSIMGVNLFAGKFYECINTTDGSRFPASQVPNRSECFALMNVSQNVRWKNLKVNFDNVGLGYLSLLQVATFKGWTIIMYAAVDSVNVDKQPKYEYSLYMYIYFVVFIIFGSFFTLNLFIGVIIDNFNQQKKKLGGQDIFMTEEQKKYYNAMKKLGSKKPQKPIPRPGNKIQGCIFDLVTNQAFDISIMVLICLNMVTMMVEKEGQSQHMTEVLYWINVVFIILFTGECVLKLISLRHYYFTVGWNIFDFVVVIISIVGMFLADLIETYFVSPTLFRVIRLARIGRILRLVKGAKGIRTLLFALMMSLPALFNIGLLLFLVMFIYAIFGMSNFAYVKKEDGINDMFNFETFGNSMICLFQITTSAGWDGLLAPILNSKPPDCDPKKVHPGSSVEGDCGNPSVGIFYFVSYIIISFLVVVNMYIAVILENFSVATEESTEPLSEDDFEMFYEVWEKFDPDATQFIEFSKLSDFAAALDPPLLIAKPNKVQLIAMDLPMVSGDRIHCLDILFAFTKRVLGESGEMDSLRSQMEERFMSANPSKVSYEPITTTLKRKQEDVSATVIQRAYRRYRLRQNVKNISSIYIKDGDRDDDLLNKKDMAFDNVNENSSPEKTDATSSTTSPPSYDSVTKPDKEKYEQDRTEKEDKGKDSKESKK

Chain of Sodium channel protein type 5 subunit alpha (Q14524 whole entry): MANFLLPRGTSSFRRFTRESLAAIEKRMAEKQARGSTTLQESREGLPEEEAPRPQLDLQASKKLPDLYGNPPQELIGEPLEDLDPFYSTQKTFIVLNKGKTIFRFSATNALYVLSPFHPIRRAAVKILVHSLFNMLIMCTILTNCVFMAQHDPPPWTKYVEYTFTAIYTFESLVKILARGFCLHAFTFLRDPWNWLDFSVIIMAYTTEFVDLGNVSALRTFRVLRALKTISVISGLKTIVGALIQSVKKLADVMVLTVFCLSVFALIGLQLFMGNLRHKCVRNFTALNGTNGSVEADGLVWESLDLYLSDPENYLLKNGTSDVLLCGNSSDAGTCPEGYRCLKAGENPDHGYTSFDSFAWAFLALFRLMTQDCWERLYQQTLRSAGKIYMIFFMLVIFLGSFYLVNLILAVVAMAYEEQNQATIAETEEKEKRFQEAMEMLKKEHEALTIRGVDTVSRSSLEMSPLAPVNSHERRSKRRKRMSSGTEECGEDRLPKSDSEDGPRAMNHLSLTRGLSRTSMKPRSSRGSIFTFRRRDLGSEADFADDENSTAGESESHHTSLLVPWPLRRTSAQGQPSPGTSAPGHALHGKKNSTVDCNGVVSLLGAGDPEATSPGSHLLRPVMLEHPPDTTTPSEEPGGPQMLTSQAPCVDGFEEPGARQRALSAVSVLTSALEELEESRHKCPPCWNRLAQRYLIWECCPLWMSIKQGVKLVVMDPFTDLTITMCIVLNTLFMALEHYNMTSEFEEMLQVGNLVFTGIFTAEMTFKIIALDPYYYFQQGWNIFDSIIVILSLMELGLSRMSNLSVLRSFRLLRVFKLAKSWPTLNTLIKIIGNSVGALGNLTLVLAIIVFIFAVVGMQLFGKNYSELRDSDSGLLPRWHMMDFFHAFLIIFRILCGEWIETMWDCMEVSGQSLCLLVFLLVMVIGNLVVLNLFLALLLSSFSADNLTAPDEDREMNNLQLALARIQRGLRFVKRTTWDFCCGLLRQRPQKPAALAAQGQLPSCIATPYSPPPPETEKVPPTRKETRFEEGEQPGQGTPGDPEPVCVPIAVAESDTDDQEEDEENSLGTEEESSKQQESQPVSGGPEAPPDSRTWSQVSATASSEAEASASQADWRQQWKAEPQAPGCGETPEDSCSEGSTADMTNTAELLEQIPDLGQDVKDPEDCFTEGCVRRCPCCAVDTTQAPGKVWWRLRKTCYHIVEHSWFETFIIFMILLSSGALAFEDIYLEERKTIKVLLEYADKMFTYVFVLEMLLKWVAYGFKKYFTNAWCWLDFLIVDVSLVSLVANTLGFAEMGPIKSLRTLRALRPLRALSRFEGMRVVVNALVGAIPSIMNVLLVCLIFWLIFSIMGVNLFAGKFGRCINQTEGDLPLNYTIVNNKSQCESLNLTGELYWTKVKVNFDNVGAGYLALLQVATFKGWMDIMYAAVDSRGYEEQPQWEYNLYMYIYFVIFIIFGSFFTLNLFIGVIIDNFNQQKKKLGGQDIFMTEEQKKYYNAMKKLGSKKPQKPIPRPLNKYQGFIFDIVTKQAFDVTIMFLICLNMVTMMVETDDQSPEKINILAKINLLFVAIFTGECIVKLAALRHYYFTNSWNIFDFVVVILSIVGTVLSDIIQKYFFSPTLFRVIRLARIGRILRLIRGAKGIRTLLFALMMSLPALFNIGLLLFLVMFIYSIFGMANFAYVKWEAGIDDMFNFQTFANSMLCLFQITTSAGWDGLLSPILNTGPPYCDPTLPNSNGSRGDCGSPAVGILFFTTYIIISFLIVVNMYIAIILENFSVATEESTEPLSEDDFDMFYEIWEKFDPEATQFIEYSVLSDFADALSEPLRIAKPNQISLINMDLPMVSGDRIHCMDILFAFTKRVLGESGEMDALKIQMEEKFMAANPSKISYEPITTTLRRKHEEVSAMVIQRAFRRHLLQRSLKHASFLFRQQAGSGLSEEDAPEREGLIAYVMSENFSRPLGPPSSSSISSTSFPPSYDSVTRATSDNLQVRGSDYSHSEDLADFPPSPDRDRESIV

SMILES	IC50 [1]	IC50 [2]
CC[C@H](C)[C@@H]1NC(=O)[C@@H]2CSSC[C@@H]3NC(=O)[C@H](C(C)C)NC(=O)[C@H](CC(C)C)NC(=O)[C@H](CC(N)=O)NC(=O)[C@@H]4CCCN4C(=O)[C@H](CCCNC(=N)N)NC(=O)[C@H](CSSC[C@H](NC(=O)[C@@H](N)CC(=O)O)C(=O)N[C@@H](CC(C)C)C(=O)NCC(=O)N[C@@H](C(C)(C)C)C(=O)N[C@@H](CCSC)C(=O)N[C@@H](CCCNC(=N)N)C(=O)N[C@@H](CCCCN)C(=O)N2)NC(=O)[C@H](CSSC[C@@H](C(=O)N[C@@H](CCCCN)C(=O)N[C@@H](Cc2ccc(O)cc2)C(=O)N[C@H](C(=O)N[C@@H](Cc2ccccc2)C(N)=O)C(C)C)NC(=O)[C@H](Cc2c[nH]c4ccccc24)NC(=O)[C@H](CCCCN)NC(=O)[C@H](Cc2cnc[nH]2)NC(=O)[C@H]([C@@H](C)O)NC(=O)[C@H](CCCNC(=N)N)NC(=O)[C@H](CO)NC3=O)NC(=O)[C@H](CCCCN)NC(=O)[C@H](CC(=O)O)NC(=O)[C@H](CC(N)=O)NC(=O)[C@H](CC(=O)O)NC(=O)[C@@H]2CCCN2C1=O	> 10000 nM	24 nM
CC[C@H](C)[C@@H]1NC(=O)[C@@H]2CSSC[C@@H]3NC(=O)[C@H](C(C)C)NC(=O)[C@H](CC(C)C)NC(=O)[C@H](CC(N)=O)NC(=O)[C@@H]4CCCN4C(=O)[C@H](CCCNC(=N)N)NC(=O)[C@H](CSSC[C@H](NC(=O)[C@@H](N)CC(=O)O)C(=O)N[C@@H](CC(C)C)C(=O)NCC(=O)N[C@@H](C(C)C)C(=O)N[C@@H](CCSC)C(=O)N[C@@H](CCCNC(=N)N)C(=O)N[C@@H](CCCCN)C(=O)N2)NC(=O)[C@H](CSSC[C@@H](C(=O)N[C@@H](CCCCN)C(=O)N[C@@H](Cc2ccc(O)cc2)C(=O)N[C@H](C(=O)N[C@@H](Cc2ccccc2)C(N)=O)C(C)C)NC(=O)[C@H](Cc2c[nH]c4ccccc24)NC(=O)[C@H](CCCCN)NC(=O)[C@H](Cc2cnc[nH]2)NC(=O)[C@H]([C@@H](C)O)NC(=O)[C@H](CCCNC(=N)N)NC(=O)[C@H](CO)NC3=O)NC(=O)[C@H](CCCCN)NC(=O)[C@H](CC(=O)O)NC(=O)[C@H](CC(N)=O)NC(=O)[C@H](CC(=O)O)NC(=O)[C@@H]2CCCN2C1=O (H-DCLGVMRKCIPDNDKCCRPNLVCSRTHKWCKYVF-NH2; disulfide 2-17, 9-23, 16-30)	> 10000 nM	19 nM
CC[C@H](C)[C@@H]1NC(=O)[C@@H]2CSSC[C@@H]3NC(=O)[C@H](C(C)C)NC(=O)[C@H](CC(C)C)NC(=O)[C@H](CC(N)=O)NC(=O)[C@H](C)NC(=O)[C@H](CCCNC(=N)N)NC(=O)[C@H](CSSC[C@H](NC(=O)[C@@H](N)CC(=O)O)C(=O)N[C@@H](CC(C)C)C(=O)NCC(=O)N[C@@H](Cc4ccccc4)C(=O)N[C@@H](CCSC)C(=O)N[C@@H](CCCNC(=N)N)C(=O)N[C@@H](CCCCN)C(=O)N2)NC(=O)[C@H](CSSC[C@@H](C(=O)N[C@@H](CCCCN)C(=O)N[C@@H](Cc2ccc(O)cc2)C(=O)N[C@H](C(=O)N[C@@H](Cc2ccccc2)C(N)=O)C(C)C)NC(=O)[C@H](Cc2c[nH]c4ccccc24)NC(=O)[C@H](CCCCN)NC(=O)[C@H](Cc2cnc[nH]2)NC(=O)[C@H]([C@@H](C)O)NC(=O)[C@H](CCCNC(=N)N)NC(=O)[C@H](CO)NC3=O)NC(=O)[C@H](CCCCN)NC(=O)[C@H](CC(=O)O)NC(=O)[C@H](CC(N)=O)NC(=O)[C@H](CC(=O)O)NC(=O)[C@@H]2CCCN2C1=O (H-DCLGFMRKCIPDNDKCCRANLVCSRTHKWCKYVF-NH2; disulfide 2-17, 9-23, 16-30)	> 20000 nM	90 nM
CC[C@H](C)[C@@H]1NC(=O)[C@@H]2CSSC[C@@H]3NC(=O)[C@H](C(C)C)NC(=O)[C@H](CC(C)C)NC(=O)[C@H](CC(N)=O)NC(=O)[C@@H]4CCCN4C(=O)[C@H](CCCNC(=N)N)NC(=O)[C@H](CSSC[C@H](NC(=O)[C@@H](N)CC(=O)O)C(=O)N[C@@H](CC(C)C)C(=O)NCC(=O)N[C@@H](Cc4ccccc4)C(=O)N[C@@H](CCSC)C(=O)N[C@@H](CCCNC(=N)N)C(=O)N[C@@H](CCCCN)C(=O)N2)NC(=O)[C@H](CSSC[C@@H](C(=O)N[C@@H](CCCCN)C(=O)N[C@@H](Cc2ccc(O)cc2)C(=O)N[C@H](C(=O)N[C@@H](Cc2ccccc2)C(N)=O)C(C)C)NC(=O)[C@H](Cc2c[nH]c4ccccc24)NC(=O)[C@H](CCCCN)NC(=O)[C@H](Cc2cnc[nH]2)NC(=O)[C@H](CC(C)C)NC(=O)[C@H](CCCNC(=N)N)NC(=O)[C@H](CO)NC3=O)NC(=O)[C@H](CCCCN)NC(=O)[C@H](CC(=O)O)NC(=O)[C@H](CC(N)=O)NC(=O)[C@H](CC(=O)O)NC(=O)[C@@H]2CCCN2C1=O (H-DCLGFMRKCIPDNDKCCRPNLVCSRLHKWCKYVF-NH2; disulfide 2-17, 9-23, 16-30)	4600 nM	4 nM
CC[C@H](C)[C@@H]1NC(=O)[C@@H]2CSSC[C@@H]3NC(=O)[C@H](C(C)C)NC(=O)[C@H](CC(C)C)NC(=O)[C@H](CC(N)=O)NC(=O)[C@@H]4CCCN4C(=O)[C@H](CCCNC(=N)N)NC(=O)[C@H](CSSC[C@H](NC(=O)[C@@H](N)CC(=O)O)C(=O)N[C@@H](CC(C)C)C(=O)NCC(=O)N[C@@H](CC(C)C)C(=O)N[C@@H](CCSC)C(=O)N[C@@H](CCCNC(=N)N)C(=O)N[C@@H](CCCCN)C(=O)N2)NC(=O)[C@H](CSSC[C@@H](C(=O)N[C@@H](CCCCN)C(=O)N[C@@H](Cc2ccc(O)cc2)C(=O)N[C@H](C(=O)N[C@@H](Cc2ccccc2)C(N)=O)C(C)C)NC(=O)[C@H](Cc2c[nH]c4ccccc24)NC(=O)[C@H](CCCCN)NC(=O)[C@H](Cc2cnc[nH]2)NC(=O)[C@H]([C@@H](C)O)NC(=O)[C@H](CCCNC(=N)N)NC(=O)[C@H](CO)NC3=O)NC(=O)[C@H](CCCCN)NC(=O)[C@H](CC(=O)O)NC(=O)[C@H](CC(N)=O)NC(=O)[C@H](CC(=O)O)NC(=O)[C@@H]2CCCN2C1=O (H-DCLGLMRKCIPDNDKCCRPNLVCSRTHKWCKYVF-NH2; disulfide 2-17, 9-23, 16-30)	> 10000 nM	5 nM
CC[C@H](C)[C@@H]1NC(=O)[C@@H]2CSSC[C@@H]3NC(=O)[C@H](C(C)C)NC(=O)[C@H](CC(C)C)NC(=O)[C@H](CC(N)=O)NC(=O)[C@@H]4CCCN4C(=O)[C@H](CCCNC(=N)N)NC(=O)[C@H](CSSC[C@H](NC(=O)[C@@H](N)CC(=O)O)C(=O)N[C@@H](CC(C)C)C(=O)NCC(=O)N[C@@H](Cc4ccccc4)C(=O)N[C@@H](CCSC)C(=O)N[C@@H](CCCNC(=N)N)C(=O)N[C@@H](CCCCN)C(=O)N2)NC(=O)[C@H](CSSC[C@@H](C(=O)N[C@@H](CCCCN)C(=O)N[C@@H](Cc2ccc(O)cc2)C(=O)N[C@H](C(=O)N[C@@H](Cc2ccccc2)C(N)=O)C(C)C)NC(=O)[C@H](Cc2c[nH]c4ccccc24)NC(=O)[C@H](CCCCN)NC(=O)[C@H](C)NC(=O)[C@H]([C@@H](C)O)NC(=O)[C@H](CCCNC(=N)N)NC(=O)[C@H](CO)NC3=O)NC(=O)[C@H](CCCCN)NC(=O)[C@H](CC(=O)O)NC(=O)[C@H](CC(N)=O)NC(=O)[C@H](CC(=O)O)NC(=O)[C@@H]2CCCN2C1=O (H-DCLGFMRKCIPDNDKCCRPNLVCSRTAKWCKYVF-NH2; disulfide 2-17, 9-23, 16-30)	> 5000 nM	970 nM
CC[C@H](C)[C@@H]1NC(=O)[C@@H]2CSSC[C@@H]3NC(=O)[C@H](C(C)C)NC(=O)[C@H](CC(C)C)NC(=O)[C@H](CC(N)=O)NC(=O)[C@@H]4CCCN4C(=O)[C@H](CCCNC(=N)N)NC(=O)[C@H](CSSC[C@H](NC(=O)[C@@H](N)CC(=O)O)C(=O)N[C@@H](CC(C)C)C(=O)NCC(=O)N[C@@H](C)C(=O)N[C@@H](Cc4c[nH]c5ccccc45)C(=O)N[C@@H](CCCNC(=N)N)C(=O)N[C@@H](CCCCN)C(=O)N2)NC(=O)[C@H](CSSC[C@@H](C(=O)N[C@@H](CCCCN)C(=O)N[C@@H](Cc2ccc(O)cc2)C(=O)N[C@H](C(=O)N[C@@H](Cc2ccccc2)C(N)=O)C(C)C)NC(=O)[C@H](Cc2c[nH]c4ccccc24)NC(=O)[C@H](CCCCN)NC(=O)[C@H](Cc2cnc[nH]2)NC(=O)[C@H]([C@@H](C)O)NC(=O)[C@H](CCCNC(=N)N)NC(=O)[C@H](CO)NC3=O)NC(=O)[C@H](CCCCN)NC(=O)[C@H](CC(=O)O)NC(=O)[C@H](CC(N)=O)NC(=O)[C@H](CC(=O)O)NC(=O)[C@@H]2CCCN2C1=O (H-DCLGAWRKCIPDNDKCCRPNLVCSRTHKWCKYVF-NH2; disulfide 2-17, 9-23, 16-30)	> 10000 nM	59 nM
CC[C@H](C)[C@@H]1NC(=O)[C@@H]2CSSC[C@@H]3NC(=O)[C@H](C(C)C)NC(=O)[C@H](CC(C)C)NC(=O)[C@H](CC(N)=O)NC(=O)[C@@H]4CCCN4C(=O)[C@H](C)NC(=O)[C@H](CSSC[C@H](NC(=O)[C@@H](N)CC(=O)O)C(=O)N[C@@H](CC(C)C)C(=O)NCC(=O)N[C@@H](Cc4ccccc4)C(=O)N[C@@H](CCSC)C(=O)N[C@@H](CCCNC(=N)N)C(=O)N[C@@H](CCCCN)C(=O)N2)NC(=O)[C@H](CSSC[C@@H](C(=O)N[C@@H](CCCCN)C(=O)N[C@@H](Cc2ccc(O)cc2)C(=O)N[C@H](C(=O)N[C@@H](Cc2ccccc2)C(N)=O)C(C)C)NC(=O)[C@H](Cc2c[nH]c4ccccc24)NC(=O)[C@H](CCCCN)NC(=O)[C@H](Cc2cnc[nH]2)NC(=O)[C@H]([C@@H](C)O)NC(=O)[C@H](CCCNC(=N)N)NC(=O)[C@H](CO)NC3=O)NC(=O)[C@H](CCCCN)NC(=O)[C@H](CC(=O)O)NC(=O)[C@H](CC(N)=O)NC(=O)[C@H](CC(=O)O)NC(=O)[C@@H]2CCCN2C1=O (H-DCLGFMRKCIPDNDKCCAPNLVCSRTHKWCKYVF-NH2; disulfide 2-17, 9-23, 16-30)	> 20000 nM	130 nM
